# Assay results: patent publication US4619925A, “3-Propenyl cephalosporin derivatives” (priority 1985, dated 1986)
# Legend:
# S. aureus Smith = test: Protective dose for mice infected with lethal inoculum; type: in vivo; details: 50% survival after five days
# Text: (§1) The data in Table 2 are results of protective doses (PD50) for mice infected with a lethal inoculum of bacteria. Two different bacteria were employed in the studies, one a Gram-positive organism (S. aureus Smith) and the other a Gram-negative organism (E. coli Juhl). The PD50 is that dose which, when administered to a group of injected mice, results in 50% survival after five days. Normally untreated infected mice die within three days following injection of the lethal inoculum.
# [1] = test system: S. aureus Smith and E. coli Juhl; test: Protective effect in mice infected with a lethal inoculum (overall); type: in vivo
# Text: as §1
structure (smiles),measurement,setting,value
"C/C=C\C1=C(C(=O)O)N2C(=O)C(NC(=O)[C@H](N)c3cccc(O)c3)[C@H]2SC1 (stereo partly drawn) [BMY-28272, 7-[(D)-2-amino-2-(3-hydroxyphenyl)acetamido]-3-[(Z)-1-propenyl]-3-cephem-4-carboxylic acid]",PD50 (protective dose),S. aureus Smith; im,0.29
same,PD50 (protective dose),S. aureus Smith; po,0.17
same,effectiveness in vivo,[1],effectiveness of BMY-28272 in vivo is confirmed
